“And” between values parts separate entries of the source, which are not always exact repeats. Equal entries are not always repeated.
System: children undergoing tonsillectomy
Assay: Opioid-related adverse effects and PACU stay by sex, age and morphine dose (Example 6)
[1] = F, total morphine 0.2-<0.3 mg/kg
[2] = M, total morphine 0.2-<0.3 mg/kg
[3] = girls 8-13 years, total morphine <0.3 mg/kg
[4] = girls 8-13 years, total morphine >=0.3 mg/kg
[5] = girls <8 years, total morphine <0.3 mg/kg
[6] = girls <8 years, total morphine >=0.3 mg/kg
[7] = girls >13 years, total morphine <0.3 mg/kg
[8] = girls >13 years, total morphine >=0.3 mg/kg

Source text: This was a prospective clinical observational study using a standard perioperative anesthetic and surgical practices and standard postoperative nursing care within the tonsillectomy population.
Clinical criteria for OSA designation included sleep disordered breathing with a history of snoring and either sleep pauses lasting more than 10 seconds or daytime drowsiness. Children were excluded from the study if they or their parents were non-English speaking.
As part of T/TA standard practice at this institution, all children receive prophylactic ondansetron (0.1 mg/kg) and dexamethasone (0.1 mg/kg) intraoperatively. Anesthesia is induced via sevoflurane inhaled induction followed by a propofol (2 mg/kg) bolus to facilitate endotracheal intubation. Anesthesia was maintained with sevoflurane without the use of neuromuscular blockade.
Adverse effects were measured by two sets of binary outcomes: 1) opioid-related side effects including RD, nausea/vomiting (PONV) and pruritus; 2) prolonged PACU stay secondary to respiratory depression or nausea/vomiting.
Duration of PACU stay (time to achieve PACU discharge readiness) was defined as the duration in PACU before achieving the following discharge criteria. […] This discharge readiness time is different from actual PACU discharge time as delays due to social reasons (e.g. waiting for car ride, etc.) were not included.
Prior to analyses, data quality was examined. […] To assess the sex effect, outcome measurements were first compared between boys and girls with and without OSA stratification. Continuous variables were compared using t-test or Wilcoxon rank-sum test and categorical variables were compared using Fisher's exact test.
Effects of age, weight, BMI z scores, and OSA were also tested as covariates for all the outcomes. When significant effects were detected (p<0.05), covariates were included in the final models. Binary outcomes were analyzed using logistic regression. Maximum NRS was analyzed using linear regression. Maximum FLACC score was analyzed by using a zero-inflated negative binomial model because of the inflated frequency of score 0. The total number of analgesic interventions followed a Poisson distribution and was analyzed using a generalized linear model.

CN1CC[C@]23c4c5ccc(O)c4O[C@H]2[C@@H](O)C=C[C@H]3[C@H]1C5 [morphine]
PONV, number of cases (F, All): 22 | PONV, proportion (F, All): (10%) | Prolonged stay in PACU due to PONV, proportion (F, All): (5%) | Prolonged stay in PACU due to RD, number of cases (F, All): 11 | Prolonged stay in PACU due to RD, proportion (F, All): (5%) | Pruritus, number of cases (F, All): 88 | Pruritus, proportion (F, All): (41%) | RD, proportion (F, All): (9%) | PONV, number of cases (F, OSA No): 11 | PONV, proportion (F, OSA No): (9%) | Prolonged stay in PACU due to PONV, proportion (F, OSA No): (2%) | Prolonged stay in PACU due to RD, number of cases (F, OSA No): 5 | Prolonged stay in PACU due to RD, proportion (F, OSA No): (4%) | Pruritus, number of cases (F, OSA No): 41 | Pruritus, proportion (F, OSA No): (33%) | RD, number of cases (F, OSA No): 9 | RD, proportion (F, OSA No): (7%) | PONV, number of cases (F, OSA Yes): 11 | PONV, proportion (F, OSA Yes): (12%) | Prolonged stay in PACU due to PONV, proportion (F, OSA Yes): (8%) | Prolonged stay in PACU due to RD, number of cases (F, OSA Yes): 6 | Prolonged stay in PACU due to RD, proportion (F, OSA Yes): (6%) | Pruritus, number of cases (F, OSA Yes): 47 | Pruritus, proportion (F, OSA Yes): (50%) | RD, proportion (F, OSA Yes): (12%) | PONV, number of cases (%) [1]: 8 (16) | Prolonged stay in PACU due to PONV, number of cases (%) [1]: 3 (6) | Prolonged stay in PACU due to RD, number of cases (%) [1]: 1 (2) | Pruritus, number of cases (%) [1]: 42 (84) | PONV, number of cases (%) (F, total morphine <0.2 mg/kg): 4 (10) | Prolonged stay in PACU due to PONV, number of cases (%) (F, total morphine <0.2 mg/kg): 2 (5) | Prolonged stay in PACU due to RD, number of cases (%) (F, total morphine <0.2 mg/kg): 2 (5) | Pruritus, number of cases (%) (F, total morphine <0.2 mg/kg): 29 (73) | PONV, number of cases (%) (F, total morphine ≥0.3 mg/kg): 10 (43) | Prolonged stay in PACU due to PONV, number of cases (%) (F, total morphine ≥0.3 mg/kg): 5 (22) | Prolonged stay in PACU due to RD, number of cases (%) (F, total morphine ≥0.3 mg/kg): 8 (35) | Pruritus, number of cases (%) (F, total morphine ≥0.3 mg/kg): 17 (74) | RD, number of cases (%) (F, total morphine ≥0.3 mg/kg): 12 (52) | PONV, number of cases (M, All): 14 | PONV, proportion (M, All): (6%) | Prolonged stay in PACU due to PONV, proportion (M, All): (4%) | Prolonged stay in PACU due to RD, number of cases (M, All): 13 | Prolonged stay in PACU due to RD, proportion (M, All): (6%) | Pruritus, number of cases (M, All): 79 | Pruritus, proportion (M, All): (36%) | RD, proportion (M, All): (8%) | PONV, number of cases (M, OSA No): 7 | PONV, proportion (M, OSA No): (6%) | Prolonged stay in PACU due to PONV, proportion (M, OSA No): (5%) | Prolonged stay in PACU due to RD, number of cases (M, OSA No): 8 | Prolonged stay in PACU due to RD, proportion (M, OSA No): (6%) | Pruritus, number of cases (M, OSA No): 51 | Pruritus, proportion (M, OSA No): (41%) | RD, number of cases (M, OSA No): 12 | RD, proportion (M, OSA No): (10%) | PONV, number of cases (M, OSA Yes): 7 | PONV, proportion (M, OSA Yes): (7%) | Prolonged stay in PACU due to PONV, proportion (M, OSA Yes): (2%) | Prolonged stay in PACU due to RD, number of cases (M, OSA Yes): 5 | Prolonged stay in PACU due to RD, proportion (M, OSA Yes): (5%) | Pruritus, number of cases (M, OSA Yes): 28 | Pruritus, proportion (M, OSA Yes): (30%) | RD, number of cases (M, OSA Yes): 6 | RD, proportion (M, OSA Yes): (6%) | PONV, number of cases (%) [2]: 7 (15) | Prolonged stay in PACU due to PONV, number of cases (%) [2]: 3 (6) | Prolonged stay in PACU due to RD, number of cases (%) [2]: 3 (6) | Pruritus, number of cases (%) [2]: 35 (76) | RD, number of cases (%) [2]: 6 (13) | PONV, number of cases (%) (M, total morphine <0.2 mg/kg): 6 (18) | Prolonged stay in PACU due to PONV, number of cases (%) (M, total morphine <0.2 mg/kg): 4 (12) | Prolonged stay in PACU due to RD, number of cases (%) (M, total morphine <0.2 mg/kg): 5 (15) | Pruritus, number of cases (%) (M, total morphine <0.2 mg/kg): 24 | RD, number of cases (%) (M, total morphine <0.2 mg/kg): 4 (12) | PONV, number of cases (%) (M, total morphine ≥0.3 mg/kg): 1 (4) | Prolonged stay in PACU due to PONV, number of cases (%) (M, total morphine ≥0.3 mg/kg): 1 (4) | Prolonged stay in PACU due to RD, number of cases (%) (M, total morphine ≥0.3 mg/kg): 5 (20) | Pruritus, number of cases (%) (M, total morphine ≥0.3 mg/kg): 20 (80) | RD, number of cases (%) (M, total morphine ≥0.3 mg/kg): 8 (32) | PONV, number of cases (%) [3]: 2 (5) | Prolonged stay in PACU due to PONV, number of cases (%) [3]: 2 (5) | Prolonged stay in PACU due to RD, number of cases (%) [3]: 1 (2) | Respiratory depression (RD), number of cases (%) [3]: 4 (9) | PONV, number of cases (%) [4]: 1 (11) | Prolonged stay in PACU due to PONV, number of cases (%) [4]: 1 (11) | Prolonged stay in PACU due to RD, number of cases (%) [4]: 3 (33) | Respiratory depression (RD), number of cases (%) [4]: 5 (56) | PONV, number of cases (%) [5]: 7 (19) | Prolonged stay in PACU due to PONV, number of cases (%) [5]: 2 (5) | Prolonged stay in PACU due to RD, number of cases (%) [5]: 2 (5) | Respiratory depression (RD), number of cases (%) [5]: 3 (8) | PONV, number of cases (%) [6]: 6 (60) | Prolonged stay in PACU due to PONV, number of cases (%) [6]: 4 (40) | Prolonged stay in PACU due to RD, number of cases (%) [6]: 4 (40) | Respiratory depression (RD), number of cases (%) [6]: 5 (50) | PONV, number of cases (%) [7]: 1 (9) | Prolonged stay in PACU due to PONV, number of cases (%) [7]: 1 (9) | Prolonged stay in PACU due to RD, number of cases (%) [7]: 0 (0) | Respiratory depression (RD), number of cases (%) [7]: 1 (9) | PONV, number of cases (%) [8]: 0 (0) | Prolonged stay in PACU due to PONV, number of cases (%) [8]: 0 (0) | Prolonged stay in PACU due to RD, number of cases (%) [8]: 1 (25) | Respiratory depression (RD), number of cases (%) [8]: 2 (50) | probability of all opioid adverse effects except for pruritus (girls, morphine exceeded 0.3 mg/kg, multivariate models): increased significantly | duration of stay in PACU (white boys, <0.3 mg/kg total morphine): 88.3 ± 3.6 min | duration of stay in PACU (white boys, ≥0.3 mg/kg total morphine): 99.7 ± 6.4 min | duration of stay in PACU (white girls, <0.3 mg/kg total morphine): 82.2 ± 3.3 min | duration of stay in PACU (white girls, ≥0.3 mg/kg total morphine, 0.3 mg/kg): 111 ± 6.6 min and 111.1 ± 6.6 min

Source: patent publication US10878939B2, “Methods and compositions for personalized pain management” (Children's Hospital Medical Center, priority 2014, dated 2020)
